Measurements from patent publication US9566277B2, “Methods of using phthalazinone ketone derivatives” (Jiangsu Hansoh Pharmaceutical Co., Ltd., priority 2010, dated 2017).

Test: Pharmacokinetics assay in SD rats (LC/MS/MS plasma concentration)
Type: in vivo
Conditions: 15 mg/kg; for Apparent Distribution Volume Vz/F / Clearance CL/F: intravenous injection; for Vd/F / CL/F: both sexes, rat, plasma, oral gavage; for Vd/F: read-out: Apparent Distribution Volume Vz/F; for CL/F: read-out: Clearance CL/F (converted)
Method: 24 Healthy adult SD rats, male and female in half, were purchased from SINO-BRITSH SIPPR/BK LAB. ANIMAL LTD., CO, Certificate No.: SCXK (Shanghai) 2003-0002.
The intragastrical administration group: the right amount of tested compounds were weighed and dissolved in 0.5 mL of DMSO, diluted with physiological saline to 10 mL and prepared to 1.5 mg/mL.
The intravenous injection administration group: the right amount of tested compounds were weighed and added into […].
After an overnight fast, 24 healthy adult SD rats, male and female in half, were administered intragastrically at a dose of 15.0 mg/kg and an administration volume of 10 mL/kg.
(§1) The intragastrical administration group: blood samples (0.2 mL) were taken from orbital sinus at pre administration and at 0.25 hour, 0.5 hour, 1.0 hour, 1.5 hours, 2.0 hours, 3.0 hours, 4.0 hours, 6.0 hours, 7.0 hours, 9.0 hours, 12.0 hours and 24.0 hours post administration, stored in heparinized tubes and centrifuged for 20 minutes at 3,500 rpm to separate plasma. The plasma samples were stored at −20° C. The rats were fed at 2 hours after administration.
as §1, with “intravenous injection” for “intragastrical”, “2 minutes, 15 minutes,” for “0.25 hour,”, “hour,” for “hour, 1.5 hours,”, “8.0” for “7.0 hours, 9.0”, “C.” for “C. The rats were fed at 2 hours after administration.”
20 μL of rat blank plasmas taken at various time points after administration were added with 50 μL of internal standard solution and […] of methanol and mixed for 3 minutes by a vortexer. The mixture was centrifuged for 10 minutes at 13,500 rpm. 20 μL of the supernatant was analyzed by LC-MS/MS. The main pharmacokinetic parameters were calculated by software DAS 2.0.

Compound: CCNC(=O)c1nc(C(F)(F)F)n2c1CN(C(=O)c1cc(Cc3n[nH]c(=O)c4ccccc34)ccc1F)CC2 [Example 7, N-ethyl-7-[2-fluoro-5-[(4-oxo-3H-phthalazin-1-yl)methyl]benzoyl]-3-(trifluoromethyl)-6,8-dihydro-5H-imidazo[1,5-a]pyrazine-1-carboxamide]
- Apparent Distribution Volume Vz/F: 0.64 ± 0.19 L/kg
- Clearance CL/F: 8.67 ± 4.83 mL/min/kg
- Vd/F: 103 ± 134 L/kg
- CL/F: 257 mL/min/kg

Compound: CNC(=O)c1nc(C(F)(F)F)n2c1CN(C(=O)c1cc(Cc3n[nH]c(=O)c4ccccc34)ccc1F)CC2 [Example 13, 7-[2-fluoro-5-[(4-oxo-3H-phthalazin-1-yl)methyl]benzoyl]-N-methyl-3-(trifluoromethyl)-6,8-dihydro-5H-imidazo[1,5-a]pyrazine-1-carboxamide]
- Apparent Distribution Volume Vz/F: 4.70 ± 2.17 L/kg
- Clearance CL/F: 12 ± 7.5 mL/min/kg
- Vd/F: 49.9 ± 52.9 L/kg
- CL/F: 74.5 mL/min/kg

Compound: O=C(c1cc(Cc2n[nH]c(=O)c3ccccc23)ccc1F)N1CCn2nc(C(F)(F)F)nc2C1 [Example 19, 4-[[4-fluoro-3-[2-(trifluoromethyl)-6,8-dihydro-5H-[1,2,4]triazolo[1,5-a]pyrazine-7-carbonyl]phenyl]methyl]-2H-phthalazin-1-one]
- Vd/F: 7.97 ± 5.38 L/kg
- CL/F: 57.5 mL/min/kg
